Values joined by “and” are separate entries in the source; they are usually repeats but may differ in a detail not shown here. Equal values may be shown once.
Tests used:
Rat NHE3 = molecular target: T1, Rat NHE3 (Rattus norvegicus, UniProt P26433); assay: Cell-based NHE3 activity under prompt conditions (OK cells, BCECF pH recovery), rat NHE3; conditions: prompt conditions
T1 construct: expressed in transfected cells; host or cells: Opossum kidney (OK) cells (ATCC), electroporation
Procedure, shortened: (§1)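 Opossum kidney cells transfected with rat or human NHE3 underwent ammonium prepulse (20 mM NH4Cl, pH 7.4, 30 min) then 10 min in Na+-free buffer, room temperature.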

Human NHE3 = molecular target: T2, Human NHE3 (Homo sapiens, UniProt P48764); assay: Cell-based NHE3 activity under prompt conditions (OK cells, BCECF pH recovery), human NHE3; conditions: prompt conditions
T2 construct: expressed in transfected cells; host or cells: Opossum kidney (OK) cells (ATCC), electroporation
T2 sequence (P48764 26-834): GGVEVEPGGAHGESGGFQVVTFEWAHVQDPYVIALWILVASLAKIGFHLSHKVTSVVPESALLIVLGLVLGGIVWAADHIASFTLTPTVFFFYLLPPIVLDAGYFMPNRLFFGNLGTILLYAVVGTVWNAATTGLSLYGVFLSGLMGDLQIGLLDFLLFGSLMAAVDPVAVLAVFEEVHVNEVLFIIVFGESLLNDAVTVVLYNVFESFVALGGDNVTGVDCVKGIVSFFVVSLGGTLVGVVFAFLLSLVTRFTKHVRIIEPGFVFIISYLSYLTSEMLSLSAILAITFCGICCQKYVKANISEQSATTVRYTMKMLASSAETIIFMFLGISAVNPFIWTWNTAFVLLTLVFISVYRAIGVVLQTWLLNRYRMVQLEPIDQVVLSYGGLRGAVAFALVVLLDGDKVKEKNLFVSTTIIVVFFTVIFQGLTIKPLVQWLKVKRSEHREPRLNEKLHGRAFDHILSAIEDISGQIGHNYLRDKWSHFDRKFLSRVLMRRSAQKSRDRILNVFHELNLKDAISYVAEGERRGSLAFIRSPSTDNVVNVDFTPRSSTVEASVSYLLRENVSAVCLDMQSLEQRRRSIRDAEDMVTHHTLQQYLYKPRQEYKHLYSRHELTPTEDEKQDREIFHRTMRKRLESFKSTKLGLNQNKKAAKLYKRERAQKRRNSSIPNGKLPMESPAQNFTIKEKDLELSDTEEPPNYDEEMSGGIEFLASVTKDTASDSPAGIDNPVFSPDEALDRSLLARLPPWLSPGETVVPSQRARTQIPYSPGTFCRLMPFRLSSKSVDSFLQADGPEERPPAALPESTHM
Procedure, shortened: as §1

[1] = test system: absorption of sodium from the intestinal lumen; assay: Inhibition of intestinal sodium absorption: urinary sodium (uNa) 16 h after single oral dose in rats; assay type: in vivo, rat; conditions: oral gavage, 16 h post-dose
Procedure, shortened: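 Urinary sodium mass over the 16 h after one oral gavage dose, measured by cation-exchange ion chromatography, reported as percent of water-vehicle group; ANOVA plus Dunnett's post hoc test. Groups of six 8-week-old Sprague-Dawley rats, housed individually in metabolic cages post-dose, fed and watered freely.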

[2] = test system: absorption of sodium from the intestinal lumen; assay: Fecal form score (FFS) 16 h after oral dose in rats; assay type: in vivo, rat; conditions: oral gavage, 16 h post-dose, scale 1-5
Procedure, shortened: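 Fecal form was scored at 16 h post-dose on a 1–5 wetness scale (normal pellet to liquid stream), with two independent observations averaged across six rats per group. Animals were 8-week-old Sprague-Dawley rats given test compound or water orally in the late afternoon and kept in metabolic cages.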

[3] = test system: phosphorus and calcium levels in the urine of rats; assay: Urinary excretion of phosphate and calcium in rats (16 h overnight urine); assay type: in vivo, rat; conditions: rats, oral gavage, 16 h post-dose

T1 sequence (P26433 29-831): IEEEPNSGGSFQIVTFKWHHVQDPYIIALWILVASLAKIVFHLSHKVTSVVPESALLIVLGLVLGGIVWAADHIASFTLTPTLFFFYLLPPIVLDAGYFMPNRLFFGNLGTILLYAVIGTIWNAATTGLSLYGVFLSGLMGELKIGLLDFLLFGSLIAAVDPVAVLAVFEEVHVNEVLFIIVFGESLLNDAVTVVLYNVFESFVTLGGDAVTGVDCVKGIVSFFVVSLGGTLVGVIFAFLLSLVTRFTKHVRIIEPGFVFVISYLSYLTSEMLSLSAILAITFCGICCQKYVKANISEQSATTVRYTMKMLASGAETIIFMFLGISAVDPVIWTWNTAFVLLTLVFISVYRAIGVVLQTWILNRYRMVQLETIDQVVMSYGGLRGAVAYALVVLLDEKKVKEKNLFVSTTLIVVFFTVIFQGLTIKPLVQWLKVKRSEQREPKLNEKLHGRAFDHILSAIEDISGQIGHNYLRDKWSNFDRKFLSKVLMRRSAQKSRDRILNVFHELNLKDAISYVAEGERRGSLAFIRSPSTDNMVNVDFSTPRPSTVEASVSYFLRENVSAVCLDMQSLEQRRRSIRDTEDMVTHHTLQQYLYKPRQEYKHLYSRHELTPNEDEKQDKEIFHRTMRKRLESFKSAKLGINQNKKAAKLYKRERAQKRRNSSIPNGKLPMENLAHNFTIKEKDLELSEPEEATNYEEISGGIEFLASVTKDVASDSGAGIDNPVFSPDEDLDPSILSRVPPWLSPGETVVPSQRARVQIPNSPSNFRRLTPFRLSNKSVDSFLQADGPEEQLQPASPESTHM

SMILES	Prompt Rat NHE3 pIC50 (Rat NHE3)	Prompt Human NHE3 pIC50 (Human NHE3)	Urine Na % of control ([1]; dose 1 mg/kg)	Urine Na % of control ([1]; dose 3 mg/kg)	Urine Na % of control ([1]; dose 10 mg/kg)	Fecal Form Score average ([2]; dose 1 mg/kg)	Fecal Form Score average ([2]; dose 3 mg/kg)	Fecal Form Score average ([2]; dose 10 mg/kg)	Urine P % of control ([3]; dose 1 mg/kg)	Urine P % of control ([3]; dose 3 mg/kg)	Urine P % of control ([3]; dose 10 mg/kg)	Urine Na % of control ([1]; dose 30 mg/kg)	Fecal Form Score average ([2]; dose 30 mg/kg)	Urine P % of control ([3]; dose 30 mg/kg)	IC50 (Rat NHE3; read-out: Prompt Rat NHE3 pIC50 (converted))
CN(C)[C@H]1Cc2c(Cl)cc(Cl)cc2[C@@H]1Oc1ccc(S(=O)(=O)NCCOCCOCCNC(=O)NCCCCNC(=O)NCCOCCOCCNS(=O)(=O)c2ccc(O[C@H]3c4cc(Cl)cc(Cl)c4C[C@@H]3N(C)C)cc2)cc1 [compound 127]	8.20	8.30	55%	39%	9%	1	1	1	159%	62%	53%				
NC(N)=Nc1nc(-c2ccc(N3CCN(CCOCCOCCOCCNC(=O)NCCOCCOCCNC(=O)CN(CCN(CC(=O)O)CC(=O)NCCOCCOCCNC(=O)NCCOCCOCCOCCN4CCN(c5ccc(-c6nc(N=C(N)N)nc7ccc(Cl)cc67)cc5)CC4)CC(=O)O)CC3)cc2)c2cc(Cl)ccc2n1 [compound 46]	7.80	7.90			58%			1			112%				
NCCOCCOCCOCCN1CCN(c2ccc(-c3nc(N=C(N)N)nc4ccc(Cl)cc34)cc2)CC1 [compound 18]	7.25 and 6.90	7.35 and 6.90			74%			1			142%	41%	1	109%	
C/C(=C\c1cc(F)c(Oc2ccc(S(=O)(=O)NCCOCCOCCOCCNC(=O)OCCOCCOCCOC(=O)NCCOCCOCCOCCNS(=O)(=O)c3ccc(Oc4c(F)cc(/C=C(\C)C(=O)N=C(N)N)cc4F)cc3)cc2)c(F)c1)C(=O)N=C(N)N [compound 26]	7.50	7.70			78%			1			77%				
CN(C)[C@H]1Cc2c(Cl)cc(Cl)cc2[C@@H]1Oc1ccc(S(=O)(=O)NCCOCCOCCNC(=O)C(C)(C)C(=O)NCCOCCOCCNS(=O)(=O)c2ccc(O[C@H]3c4cc(Cl)cc(Cl)c4C[C@@H]3N(C)C)cc2)cc1 [compound 151]	8.30	7.50		78%	42%		1	2		52%	121%				
CN(C)CC(=O)NC(CCC(=O)NCCOCCOCCNS(=O)(=O)c1cccc([C@@H]2CN(C)Cc3c(Cl)cc(Cl)cc32)c1)(CCC(=O)NCCOCCOCCNS(=O)(=O)c1cccc([C@@H]2CN(C)Cc3c(Cl)cc(Cl)cc32)c1)CCC(=O)NCCOCCOCCNS(=O)(=O)c1cccc([C@@H]2CN(C)Cc3c(Cl)cc(Cl)cc32)c1 [compound 128]	7.10	8.00	46%	35%		1	2		90%	58%					
CN(C)[C@H]1Cc2c(Cl)cc(Cl)cc2[C@@H]1Oc1ccc(S(=O)(=O)NCCOCCOCCNC(=O)[C@H](O)[C@@H](O)C(=O)NCCOCCOCCNS(=O)(=O)c2ccc(O[C@H]3c4cc(Cl)cc(Cl)c4C[C@@H]3N(C)C)cc2)cc1 [compound 150]	8.60	8.00		73%	12%		1	1		74%	159%				
CN(CC(=O)NCCOCCOCCNC(=O)NCCOCCOCCOCCN1CCN(c2cccc(-c3nc(NC(=N)N)nc4ccc(Cl)cc34)c2)CC1)CC(=O)NCCOCCOCCNC(=O)NCCOCCOCCOCCN1CCN(c2cccc(-c3nc(NC(=N)N)nc4ccc(Cl)cc34)c2)CC1 [compound 42]	7.70	8.20			94%			1			94%				
O=C(NCCCCNC(=O)NCCOCCOCCOCCNS(=O)(=O)c1ccc(O[C@H]2c3ccccc3C[C@@H]2N2CCCCC2)cc1)NCCOCCOCCOCCNS(=O)(=O)c1ccc(O[C@H]2c3ccccc3C[C@@H]2N2CCCCC2)cc1 [compound 72]		8.25	82%	74%	33%	1	2	1	99%	115%	43%				5.01 nM
CN1Cc2c(Cl)cc(Cl)cc2[C@H](c2cccc(S(=O)(=O)NCCOCCOCCNC(=O)CCC(CCC(=O)NCCOCCOCCNS(=O)(=O)c3cccc([C@@H]4CN(C)Cc5c(Cl)cc(Cl)cc54)c3)(CCC(=O)NCCOCCOCCNS(=O)(=O)c3cccc([C@@H]4CN(C)Cc5c(Cl)cc(Cl)cc54)c3)NC(=O)CCC(=O)O)c2)C1 [compound 123]	7.50	7.80	49%	12%		1	3		124%	88%					
CN1Cc2c(Cl)cc(Cl)cc2[C@H](c2cccc(S(=O)(=O)NCCOCCOCCOCCNC(=O)CCC(N)(CCC(=O)NCCOCCOCCOCCNS(=O)(=O)c3cccc([C@@H]4CN(C)Cc5c(Cl)cc(Cl)cc54)c3)CCC(=O)NCCOCCOCCOCCNS(=O)(=O)c3cccc([C@@H]4CN(C)Cc5c(Cl)cc(Cl)cc54)c3)c2)C1 [compound 90]	7.20	7.85	76%	30%	38%	1	1	5	65%	58%	20%				
O=C(NCCOCCOCCNS(=O)(=O)c1ccc(O[C@H]2c3ccccc3C[C@@H]2N2CCCCC2)cc1)[C@H](O)[C@@H](O)C(=O)NCCOCCOCCNS(=O)(=O)c1ccc(O[C@H]2c3ccccc3C[C@@H]2N2CCCCC2)cc1 [compound 98]	8.40	8.10			83%			1			88%				
CN1Cc2c(Cl)cc(Cl)cc2[C@H](c2cccc(S(=O)(=O)NCCOCCOCCNC(=O)NCCC[N+](C)(CCCNC(=O)NCCOCCOCCNS(=O)(=O)c3cccc([C@@H]4CN(C)Cc5c(Cl)cc(Cl)cc54)c3)CCCNC(=O)NCCOCCOCCNS(=O)(=O)c3cccc([C@@H]4CN(C)Cc5c(Cl)cc(Cl)cc54)c3)c2)C1 [compound 109]	7.40	8.10	64%	52%	28%	1	2	4	65%	51%	52%				
CN1Cc2c(Cl)cc(Cl)cc2[C@H](c2cccc(S(=O)(=O)NCCOCCOCCNC(=O)CCC(CCC(=O)NCCOCCOCCNS(=O)(=O)c3cccc([C@@H]4CN(C)Cc5c(Cl)cc(Cl)cc54)c3)(CCC(=O)NCCOCCOCCNS(=O)(=O)c3cccc([C@@H]4CN(C)Cc5c(Cl)cc(Cl)cc54)c3)NS(C)(=O)=O)c2)C1 [compound 122]	6.20	6.80		30%			2			87%					
